Earlier results, collected in US20090269770A1, “METHODS FOR EVALUATION PROGNOSIS AND FOLLOW-UP OF DRUG TREATMENT OF PSYCHIATRIC DISEASES OR DISORDERS” (priority 2008, published 2009).

Test system: negative symptoms of schizophrenia
Conditions: non-serotonergic antidepressant add-on (Silver and Shmugliakov, 1998); cited from earlier work

CNCCCC12CCC(c3ccccc31)c1ccccc12 [maprotaline]
effect on negative symptoms: did not improve negative symptoms
